In publication PMC9437215, “Synthesis and antibacterial activity evaluation of N (7) position-modified balofloxacins” (Frontiers in Chemistry, 2022):
Values after ≈ are worked out from the molar mass of the structure shown. Where two headings read alike, the source gives them in different places.

Columns and labels:
[1] = tested on: MRSA; assay: MIC and MBC determinations in vitro, MRSA; assay type: cell-based; conditions: MRSA clinical isolate; for MIC: 24 h culture, read-out: MIC; for MBC: solid medium 24 h
Procedure: (§1) The three strains of MRSA, P. aeruginosa, and E. coli used in this experiment were from clinical isolates, which were provided by the People’s Liberation Army 304 Hospital.
(§2) To evaluate the antibacterial activities of newly synthesized N (7) position modified fluoroquinolones, the minimum inhibitory (MIC) and bactericidal (MBC) concentrations of these compounds toward bacteria were measured.

[2] = tested on: E. coli; assay: MIC and MBC determinations in vitro, E. coli; assay type: cell-based; conditions: Escherichia coli, E. coli clinical isolate; for MIC: 24 h culture; for MBC: solid medium 24 h
Procedure: as §1, §2

[3] = tested on: P. aeruginosa; assay: MIC and MBC determinations in vitro, P. aeruginosa; assay type: cell-based; conditions: Pseudomonas aeruginosa, P. aeruginosa clinical isolate; for MIC: 24 h culture, read-out: MIC; for MBC: solid medium 24 h, read-out: MBC
Procedure: as §1, §2

[4] = Staphylococcus aureus, MRSA, 24 h
[5] = Staphylococcus aureus, MRSA, 24 h, read-out: MBC

| Structure (SMILES) | MIC [1, 4] [µg/mL] | MIC [2] [µg/mL] | melting point [°C] | MIC [3] [µg/mL] | MBC [1, 5] [µg/mL] | MBC [2] [µg/mL] | MBC [3] [µg/mL] | MBC [1] [µg/mL] |
| --- | --- | --- | --- | --- | --- | --- | --- | --- |
| COc1c(N2CCCC(N(C)C(=O)C3CCCC3)C2)c(F)cc2c(=O)c(C(=O)O)cn(C3CC3)c12 (centres unmarked) [Compound 16-e, 1-Cyclopropyl-6-fluoro-8-methoxy-7-(3-(N-methylcyclopentanecarboxamido)piperidin-1-yl)-4-oxo-1,4-dihydroquinoline-3-carboxylic acid] | 0.313 (≈ 0.645 µM) | 20 (≈ 41.2 µM) | 105.1 to 106.4 | 0.313 (≈ 0.645 µM) | 0.625 (≈ 1.29 µM) | 40 (≈ 82.4 µM) | 0.625 (≈ 1.29 µM) |  |
| COc1c(N2C[C@@H]3CCCN[C@@H]3C2)c(F)cc2c(=O)c(C(=O)O)cn(C3CC3)c12 [Compound 1f, moxifloxacin, reference compound] | 0.039 (≈ 0.0972 µM) | 0.039 (≈ 0.0972 µM) |  | 0.039 (≈ 0.0972 µM) | 0.039 (≈ 0.0972 µM) | 0.039 (≈ 0.0972 µM) | 0.039 (≈ 0.0972 µM) |  |
| CCCCCC(=O)N(C)C1CCCN(c2c(F)cc3c(=O)c(C(=O)O)cn(C4CC4)c3c2OC)C1 (centres unmarked) [Compound 6-e, 1-Cyclopropyl-6-fluoro-8-methoxy-7-(3-(N-methylhexanamido)piperidin-1-yl)-4-oxo-1,4-dihydroquinoline-3-carboxylic acid] | 0.156 (≈ 0.32 µM) | 20 (≈ 41 µM) |  | 0.313 (≈ 0.642 µM) | 0.625 (≈ 1.28 µM) | 20 (≈ 41 µM) | 0.625 (≈ 1.28 µM) |  |
| COc1c(N2CCCC(N(C)C(=O)C3CC3)C2)c(F)cc2c(=O)c(C(=O)O)cn(C3CC3)c12 (centres unmarked) [Compound 11-e, 1-Cyclopropyl-6-fluoro-8-methoxy-7-(3-(N-methylcyclopropanecarboxamido)piperidin-1-yl)-4-oxo-1,4-dihydroquinoline-3-carboxylic acid] | 0.039 (≈ 0.0852 µM) | 10 (≈ 21.9 µM) | 104.6 to 106.5 | 0.078 (≈ 0.17 µM) | 0.078 (≈ 0.17 µM) | 20 (≈ 43.7 µM) | 0.156 (≈ 0.341 µM) |  |
| CCC(=O)N(C)C1CCCN(c2c(F)cc3c(=O)c(C(=O)O)cn(C4CC4)c3c2OC)C1 (centres unmarked) [Compound 3-e, 1-Cyclopropyl-6-fluoro-8-methoxy-7-(3-(N-methylpropionamido)piperidin-1-yl)-4-oxo-1,4-dihydroquinoline-3-carboxylic acid] | 0.039 (≈ 0.0875 µM) | 5 (≈ 11.2 µM) |  | 0.078 (≈ 0.175 µM) | 0.078 (≈ 0.175 µM) | 10 (≈ 22.4 µM) | 0.078 (≈ 0.175 µM) |  |
| COc1c(N2CC3CCCN(C(=O)Cn4cncn4)C3C2)c(F)cc2c(=O)c(C(=O)O)cn(C3CC3)c12 (centres unmarked) [Compound f-1, 7-(1-(2-(1H-1,2,4-Triazol-1-yl)acetyl)octahydro-6H-pyrrolo[3,4-b]pyridin-6-yl)-1-cyclopropyl-6-fluoro-8-methoxy-4-oxo-1,4-dihydroquinoline-3-carboxylic acid] | 0.313 (≈ 0.613 µM) | 0.625 (≈ 1.22 µM) |  | 1.25 (≈ 2.45 µM) | 2.5 (≈ 4.9 µM) | 2.5 (≈ 4.9 µM) | 2.5 (≈ 4.9 µM) |  |
| COc1c(N2CCCC(N(C)C(=O)c3cccnc3)C2)c(F)cc2c(=O)c(C(=O)O)cn(C3CC3)c12 (centres unmarked) [Compound 15-e, 1-Cyclopropyl-6-fluoro-8-methoxy-7-(3-(N-methylnicotinamido)piperidin-1-yl)-4-oxo-1,4-dihydroquinoline-3-carboxylic acid] | 0.078 (≈ 0.158 µM) | 10 (≈ 20.2 µM) |  | 0.078 (≈ 0.158 µM) | 0.156 (≈ 0.315 µM) | 20 (≈ 40.4 µM) | 0.156 (≈ 0.315 µM) |  |
| COc1c(N2CCCC(N(C)C)C2)c(F)cc2c(=O)c(C(=O)O)cn(C3CC3)c12 (centres unmarked) [Compound 21-e, 1-Cyclopropyl-7-(3-(dimethylamino)piperidin-1-yl)-6-fluoro-8-methoxy-4-oxo-1,4-dihydroquinoline-3-carboxylic acid] | 0.078 (≈ 0.193 µM) | 0.625 (≈ 1.55 µM) |  | 0.313 (≈ 0.776 µM) | 0.31 (≈ 0.768 µM) | 0.625 (≈ 1.55 µM) | 0.313 (≈ 0.776 µM) | 0.313 (≈ 0.776 µM) |
| CCCCCCCC(=O)N(C)C1CCCN(c2c(F)cc3c(=O)c(C(=O)O)cn(C4CC4)c3c2OC)C1 (centres unmarked) [Compound 8-e, 1-Cyclopropyl-6-fluoro-8-methoxy-7-(3-(N-methyloctanamido)piperidin-1-yl)-4-oxo-1,4-dihydroquinoline-3-carboxylic acid] | 1.25 (≈ 2.42 µM) | > 40 | 68.2 to 70 | 1.25 (≈ 2.42 µM) | 5 (≈ 9.7 µM) | > 40 | 5 (≈ 9.7 µM) |  |
| COc1c(N2CCCC(N(C)C(=O)C3CCCO3)C2)c(F)cc2c(=O)c(C(=O)O)cn(C3CC3)c12 (centres unmarked) [Compound 14-e, 1-Cyclopropyl-6-fluoro-8-methoxy-7-(3-(N-methyltetrahydrofuran-2-carboxamido)piperidin-1-yl)-4-oxo-1,4-dihydroquinoline-3-carboxylic acid] | 0.078 (≈ 0.16 µM) | 20 (≈ 41 µM) | 140.2 to 141.2 | 0.156 (≈ 0.32 µM) | 0.156 (≈ 0.32 µM) | 20 (≈ 41 µM) | 0.313 (≈ 0.642 µM) |  |
| COc1c(N2CCCC(N(C)C(=O)CN)C2)c(F)cc2c(=O)c(C(=O)O)cn(C3CC3)c12 (centres unmarked) [Compound 20-e, 7-(3-(2-Amino-N-methylacetamido)piperidin-1-yl)-1-cyclopropyl-6-fluoro-8-methoxy-4-oxo-1,4-dihydroquinoline-3-carboxylic acid] | 25 (≈ 56 µM) | 25 (≈ 56 µM) |  | 0.78 (≈ 1.75 µM) | 50 (≈ 112 µM) | 50 (≈ 112 µM) | 6.25 (≈ 14 µM) |  |
| CCCCCCCCCC(=O)N(C)C1CCCN(c2c(F)cc3c(=O)c(C(=O)O)cn(C4CC4)c3c2OC)C1 (centres unmarked) [Compound 10-e, 1-Cyclopropyl-6-fluoro-8-methoxy-7-(3-(N-methyldecanamido)piperidin-1-yl)-4-oxo-1,4-dihydroquinoline-3-carboxylic acid] | 5 (≈ 9.2 µM) | > 40 | 65.2 to 68.1 | 5 (≈ 9.2 µM) | 20 (≈ 36.8 µM) | > 40 | 20 (≈ 36.8 µM) |  |

Further compounds by falling MIC [1, 4], results first:

| MIC [1, 4] [µg/mL] | MIC [2] [µg/mL] | melting point [°C] | MIC [3] [µg/mL] | Structure (SMILES) | MBC [1, 5] [µg/mL] | MBC [2] [µg/mL] | MBC [3] [µg/mL] | MBC [1] [µg/mL] |
| --- | --- | --- | --- | --- | --- | --- | --- | --- |
| 1.56 (≈ 3.39 µM) | 12.5 (≈ 27.1 µM) |  | 0.39 (≈ 0.847 µM) | COc1c(N2CCCC(N(C)C(=O)C(C)N)C2)c(F)cc2c(=O)c(C(=O)O)cn(C3CC3)c12 (centres unmarked) [Compound 19-e, 7-(3-(2-Amino-N-methylpropanamido)piperidin-1-yl)-1-cyclopropyl-6-fluoro-8-methoxy-4-oxo-1,4-dihydroquinoline-3-carboxylic acid] | 3.12 (≈ 6.79 µM) | 25 (≈ 54.3 µM) | 1.56 (≈ 3.39 µM) |  |
| 0.39 (≈ 0.854 µM) | 0.78 (≈ 1.71 µM) | 184.8 to 186.2 | 0.78 (≈ 1.71 µM) | COc1c(N2CCCC(N(C)C(=O)CC#N)C2)c(F)cc2c(=O)c(C(=O)O)cn(C3CC3)c12 (centres unmarked) [Compound 22-e, 7-(3-(2-Cyano-N-methylacetamido)piperidin-1-yl)-1-cyclopropyl-6-fluoro-8-methoxy-4-oxo-1,4-dihydroquinoline-3-carboxylic acid] | 0.78 (≈ 1.71 µM) | 1.56 (≈ 3.42 µM) | 1.56 (≈ 3.42 µM) |  |
| 0.313 (≈ 0.624 µM) | > 40 |  | 0.625 (≈ 1.25 µM) | CCCCCCC(=O)N(C)C1CCCN(c2c(F)cc3c(=O)c(C(=O)O)cn(C4CC4)c3c2OC)C1 (centres unmarked) [Compound 7-e, 1-Cyclopropyl-6-fluoro-8-methoxy-7-(3-(N-methylheptanamido)piperidin-1-yl)-4-oxo-1,4-dihydroquinoline-3-carboxylic acid] | 0.625 (≈ 1.25 µM) | > 40 | 1.25 (≈ 2.49 µM) |  |
| 0.313 (≈ 0.706 µM) | 0.313 (≈ 0.706 µM) |  | 0.313 (≈ 0.706 µM) | COc1c(N2CC3CCCN(C(C)=O)C3C2)c(F)cc2c(=O)c(C(=O)O)cn(C3CC3)c12 (centres unmarked) [Compound 2-f, 7-(1-Acetyloctahydro-6H-pyrrolo[3,4-b]pyridin-6-yl)-1-cyclopropyl-6-fluoro-8-methoxy-4-oxo-1,4-dihydroquinoline-3-carboxylic acid] | 0.625 (≈ 1.41 µM) | 0.625 (≈ 1.41 µM) | 0.625 (≈ 1.41 µM) |  |
| 0.156 (≈ 0.313 µM) | 0.156 (≈ 0.313 µM) |  | 0.156 (≈ 0.313 µM) | COc1c(N2CCCC(N(C)C(=O)Cn3cncn3)C2)c(F)cc2c(=O)c(C(=O)O)cn(C3CC3)c12 (centres unmarked) [Compound e-1, 1-Cyclopropyl-6-fluoro-8-methoxy-7-(3-(N-methyl-2-(1H-1,2,4-triazol-1-yl)acetamido)piperidin-1-yl)-4-oxo-1,4-dihydroquinoline-3-carboxylic acid] | 0.312 (≈ 0.626 µM) | 0.313 (≈ 0.628 µM) | 0.313 (≈ 0.628 µM) | 0.313 (≈ 0.628 µM) |
| 0.078 (≈ 0.165 µM) | 10 (≈ 21.1 µM) |  | 0.078 (≈ 0.165 µM) | CCCCC(=O)N(C)C1CCCN(c2c(F)cc3c(=O)c(C(=O)O)cn(C4CC4)c3c2OC)C1 (centres unmarked) [Compound 5-e, 1-Cyclopropyl-6-fluoro-8-methoxy-7-(3-(N-methylpentanamido)piperidin-1-yl)-4-oxo-1,4-dihydroquinoline-3-carboxylic acid] | 0.156 (≈ 0.329 µM) | 20 (≈ 42.2 µM) | 0.156 (≈ 0.329 µM) |  |
| 0.078 (≈ 0.158 µM) | 20 (≈ 40.5 µM) |  | 0.156 (≈ 0.316 µM) | COc1c(N2CCCC(N(C)C(=O)c3ccccc3)C2)c(F)cc2c(=O)c(C(=O)O)cn(C3CC3)c12 (centres unmarked) [Compound 12-e, 1-Cyclopropyl-6-fluoro-8-methoxy-7-(3-(N-methylbenzamido)piperidin-1-yl)-4-oxo-1,4-dihydroquinoline-3-carboxylic acid] | 0.313 (≈ 0.634 µM) | 20 (≈ 40.5 µM) | 0.313 (≈ 0.634 µM) |  |
| 0.039 (≈ 0.0849 µM) | 5 (≈ 10.9 µM) |  | 0.078 (≈ 0.17 µM) | CCCC(=O)N(C)C1CCCN(c2c(F)cc3c(=O)c(C(=O)O)cn(C4CC4)c3c2OC)C1 (centres unmarked) [Compound 4-e, 1-Cyclopropyl-6-fluoro-8-methoxy-7-(3-(N-methylbutyramido)piperidin-1-yl)-4-oxo-1,4-dihydroquinoline-3-carboxylic acid] | 0.078 (≈ 0.17 µM) | 20 (≈ 43.5 µM) | 0.078 (≈ 0.17 µM) |  |
